According to patent US20260242843A1, “ASSAY SYSTEM FOR […] ANTIVIRAL AGENT USING INHIBITION OF VIRUS-DERIVED PROTEASE AS INDICATOR” (TOYAMA PREFECTURAL UNIVERSITY, priority 2023, published 2026):

Assays:
IAPV protease = experiment: Measurement of IAPV protease activity using purified enzyme (fluorescent peptide substrate); type: biochemical, Israeli acute paralysis virus (IAPV); details: inhibitors at final concentration of 1 mM, pre-incubated at 37° C. for 1 hour; fluorescence in absence of inhibitors = 100%
Experimental: RNA was extracted from the midgut of virus-infected honey bees using ISOGEN II (Nippon Gene Co., Ltd.), and the extracted RNA was reverse-transcripted using PrimeScript RT reagent Kit (Takara) to obtain midgut-derived cDNA. Subsequently, the midgut-derived cDNA was subjected to PCR reaction (30 cycles of 98° C. for 30 seconds, 60° C. for 30 seconds, and 68° C. for 2 minutes) using KOD FX Neo (TOYOBO Co., Ltd.) with IAPV Protease Primer-F1 (SEQ ID NO: 59) and IAPV Protease Primer-R (SEQ ID NO: 60). As a result, a cDNA fragment of IAPV protease was obtained, consisting of the base sequence of SEQ ID NO: 57 encoding the amino acid sequence of SEQ ID NO: 58. The cDNA fragment of the IAPV protease was subjected to restriction enzyme treatment with BamHI and HindIII. The expression vector pET21a (Merck) was also subjected to restriction enzyme treatment with BamHI and HindIII. The restriction enzyme-treated cDNA fragment of the IAPV protease and the restriction enzyme-treated pET21a DNA fragment were subjected to a ligation reaction at 16° C. for 1 hour using Ligation High Ver. 2 (TOYOBO Co., Ltd.) to join the vector and the cDNA fragment, and the ligation product was used to transform E. coli. Colony PCR was performed, and an expression vector containing the cDNA fragment of the IAPV protease was obtained. E. coli Rosseta-gami B (Merck) was transformed with the expression vector of the IAPV protease. A preculture was prepared in 50 ml of LB medium containing ampicillin, followed by subculturing in 500 ml of LB medium containing ampicillin. Then, the culture was grown until the absorbance at 600 nm reached 0.5, at which point isopropyl β-D-thiogalactopyranoside (IPTG) was added to a final concentration of 1 mM. The culture was then incubated at 15° C. for 24 hours. The culture was centrifuged (8000 rpm, 10 minutes, 4° C.) to collect E. coli cells. The collected E. coli cells were dissolved in 10 ml of a sonication buffer (50 mM Tris-HCl, pH 8.0; 50 mM NaCl; 1 mM EDTA; 1 mM DTT), and disrupted by ultrasonic disruption (sonication). The disruption solution was centrifuged (12000 rpm, 10 minutes, 4° C.) to obtain a supernatant of this bacterial cell disruption solution. The IAPV protease was then purified from the resulting supernatant to yield a purified protein solution. Purification was carried out by cation exchange chromatography using HiPrep SP XL 16/10 (Cytiva) with a 20 mM Tris-HCl (pH 7.5) buffer and a 20 mM Tris-HCl (pH 7.5) buffer containing 1 M NaCl, and by gel filtration chromatography using HiLoad 16/600 Superdex 200 (Cytiva) with a 50 mM phosphate buffer (pH 7.0) containing 0.15 M NaCl.
As a substrate for the measurement of IAPV protease activity, either Dnp-PNDIV DVTMQK(Nma)-NH2 or Nma-[…] (Dnp)-NH2, in which a peptide was linked to a fluorescent substrate, was synthesized and used. When the activity measurement substrate is cleaved by the protease, it emits fluorescence. The activity measurement substrate was prepared at a concentration of 20 μM in an assay buffer (50 mM citric acid buffer, pH 6.0; 150 mM NaCl; 1 mM EDTA; 1 mM DTT). The purified protein solution of the IAPV protease obtained in Example 10 was used as the enzyme solution. 50 μl of the assay buffer containing the activity measurement substrate was mixed with 50 μl of the enzyme solution, and the mixture was reacted at 37° C. for 30 minutes in a 96-well black plate, in the presence or absence of various inhibitors listed in Table 4. Fluorescence intensity was then measured using a TECAN fluorescence plate reader (Tecan Japan Co., Ltd.) at an excitation wavelength of 340 nm and a fluorescence emission wavelength of 440 nm. The various inhibitors were prepared at a final concentration of 1 mM and pre-incubated at 37° C. for 1 hour prior to the enzymatic reaction.

[1] = tested on: virus-infected honey bees; experiment: Suppression of individual honey bee mortality by agent administration (aseptic in vivo agent evaluation rearing method); details: for viability compared to the control group: 100 μM in 50% sucrose solution, virus-infected honey bee population No. 2, FIG. 15
Experimental: A new aseptic in vivo agent evaluation rearing method for honey bees was established. Incubators and rearing boxes were sterilized with 70% ethanol after cleaning. Each hive box was populated with 30 to 35 honey bees. The honey bees were fed with a 50% sucrose solution (aseptically dissolved in sterile water) and a 50% sucrose solution containing pollen dissolved therein. The rearing temperature was maintained at 30° C. The 50% sucrose solutions were replaced daily, and the number of individual honey bees was measured at each replacement. Agents were administered dissolved in the 50% sucrose solutions. At the time when the viability had decreased to 50% or less of the initial level, total RNA was collected from the surviving individuals, and histochemical analyses were performed on the midgut and other tissues. Pharmacological analyses were conducted using the collected RNA, tissues, and blood.
E-64 ([(2S,3S)-3-carboxyoxirane-2-carbonyl]-L-leucine (4-guanidinobutyl)amide hemihydrate, manufactured by PEPTIDE INSTITUTE, INC.) was dissolved in a 50% sucrose solution at concentrations of 200 μM, 100 μM, and 50 μM. The resulting solutions were administered to honey bees in the honey bee populations Nos. 2 and 5, in which viral infection had been observed. Only 50% sucrose was administered to a control group (None). The E-64-containing solutions were replaced daily, and changes in the number of individual honey bees were measured at each replacement. FIGS. 9 and 10 show the results. Rearing was conducted using the aseptic in vivo agent evaluation rearing method, which has been described above.
E-64c (manufactured by PEPTIDE INSTITUTE, INC.) or E-64d (manufactured by PEPTIDE INSTITUTE, INC.) was dissolved in a 50% sucrose solution at a concentration of 100 μM. The resulting solutions were administered to honey bees in the honey bee population No. 2, in which viral infection had been observed. […] The solution containing E-64c or E-64d was replaced daily, and changes in the number of individual honey bees were measured at each replacement. […]

[2] = tested on: fusion protein of Maltose Binding Protein (MBP)-IAPV protease; experiment: IAPV protease activity measurement using crude enzyme solution of expressed MBP-IAPV protease fusion protein; type: biochemical, Israeli acute paralysis virus (IAPV); details: in the presence of E-64, absence of E-64 = 100%
Experimental: Midgut-derived cDNA was obtained from virus-infected honey bees in the same manner as in Example 10 and then subjected to PCR reaction (30 cycles of 98° C. for 30 seconds, 60° C. for 30 seconds, and 68° C. for 2 minutes) using KOD FX Neo (TOYOBO Co., Ltd.) with IAPV Protease Primer-F2 (SEQ ID NO: 61) and IAPV Protease Primer-R (SEQ ID NO: 60). As a result, a cDNA fragment of IAPV protease was obtained, consisting of the base sequence of SEQ ID NO: 57 encoding the amino acid sequence of SEQ ID NO: 58. The cDNA fragment of the IAPV protease was subjected to restriction enzyme treatment with BamHI and HindIII. […] Then, the culture was grown until the absorbance at 600 nm reached 0.5, at which point IPTG was added to a final concentration of 1 mM. […]
Subsequently, using a crude enzyme solution of the expressed fusion protein of IAPV protease as the enzyme solution, the IAPV protease activity was measured using the same method as in Example 11, in the presence or absence of E-64.
The fluorescence intensity measured in the absence of E-64 was reduced by the addition of E-64. When the fluorescence intensity measured in the absence of E-64 is defined as 100% relative activity, the relative activity of IAPV protease calculated from the fluorescence intensity measured in the presence of E-64 was 9% (FIG. 14). […]

[3] = tested on: virus-infected honey bees; experiment: Recovery from intestinal tract damage in honey bees (BPB administration test); type: in vivo; details: E-64 100 μM in 50% sucrose, reared 10 days; BPB 10 mg/ml for 24 hours; FIG. 13
Experimental: Virus-infected and uninfected honey bees were reared for 10 days while receiving 50% sucrose. During the rearing period, Bromophenol Blue (BPB) (FUJIFILM Wako Pure Chemical Corporation) was dissolved in a 50% sucrose solution at a concentration of 10 mg/ml and administered to the virus-infected and uninfected honey bees for 24 hours. When the viability of the virus-infected group had decreased to approximately 50%, relative to the number of individual honey bees before rearing set to 100%, BPB was administered to each group of honey bees. After BPB administration, blood was collected from honey bees (≥30 individuals), and the concentration of BPB in the blood was measured by absorbance at 500 nm using a microvolume spectrophotometer, NanoDrop One (ThermoFisher Scientific).
Virus-infected honey bees were divided into a control group (None) to which 50% sucrose was administered, and an administered group (E-64) to which a solution of E-64 (PEPTIDE INSTITUTE, INC.) dissolved at 100 μM in 50% sucrose was administered. The honey bees were reared for 10 days. […] After BPB administration, blood was collected from honey bees (≥30 individuals), and the concentration of BPB in the blood was measured by absorbance at 500 nm using a microvolume spectrophotometer, NanoDrop One (ThermoFisher Scientific).

Row | Compound | Relative Activity (%) of IAPV protease (IAPV protease) [%] | also measured
1 | CCCNC(=O)[C@H]1O[C@@H]1C(=O)N[C@H](C(=O)N1CCC[C@H]1C(=O)O)[C@@H](C)CC [CA074, [(2S,3S)-3-propylcarbamoyloxirane-2-carbonyl]-L-isoleucyl-L-proline] | 4 | –
2 | Cc1nc(-c2ccccc2F)c(C(=O)NC(Cc2ccccc2)C(=O)C(N)=O)o1 (centres unmarked) [dazcapistat] | 29 | –
3 | CCOC(=O)[C@H]1O[C@@H]1C(=O)N[C@@H](CC(C)C)C(=O)NCCc1ccc(O)cc1 [JPM-OEt] | 17 | –
4 | CCCNC(=O)[C@H]1O[C@@H]1C(=O)N[C@H](C(=O)N1CCC[C@H]1C(=O)OC)[C@@H](C)CC [CA074 methyl ester, [(2S,3S)-3-propylcarbamoyloxirane-2-carbonyl]-L-isoleucyl-L-proline methyl ester] | 32 | –
5 | CCOC(=O)[C@H]1O[C@@H]1C(=O)N[C@@H](CC(C)C)C(=O)NCCC(C)C [E-64d, [(2S,3S)-3-ethoxycarbonyloxirane-2-carbonyl]-L-leucine (3-methylbutyl)amide] | 23 | viability compared to the control group [1]: higher viability compared to the control group
6 | CC(C)CCNC(=O)[C@H](CC(C)C)NC(=O)[C@H]1O[C@@H]1C(=O)O [E-64c, [(2S,3S)-3-carboxyoxirane-2-carbonyl]-L-leucine (3-methylbutyl)amide] | 22 | viability compared to the control group [1]: higher viability compared to the control group
7 | O=C(NC1CC1)C(=O)C(Cc1ccccc1)NC(=O)[C@H]1CCC(=O)N1Cc1ccccc1 (some centres unmarked) [alicapistat] | 22 | –
8 | [(2S,3S)-3-carboxyoxirane-2-carbonyl]-L-leucine (4-guanidinobutyl)amide hemihydrate [E-64] | 5 | relative activity of IAPV protease [2]: 9%; concentration of BPB in the blood (absorbance at 500 nm) [3]: reduced the concentration of BPB in the blood; individual honey bee mortality (viability) ([1]; E-64 at 200 μM, 100 μM, 50 μM in 50% sucrose solution, virus-infected honey bee populations Nos. 2 and 5, FIGS. 9 and 10): suppressed individual honey bee mortality
9 | O=C(O)c1cc2ccccc2s1 [TNCA, benzo[b]thiophene-2-carboxylic acid] | 71 | –
